# Data taken from patent US10328075B2, “Method of treatment and compounds for use therein” (Baker Heart and Diabetes Institute, priority 2015, dated 2019).
# No end group written: not given here.
# Test system: neonatal rat ventricular cardiomyocyte
# Assay: Hypoxia-reoxygenation (simulated I-R) injury in neonatal rat cardiomyocytes, LDH and cTnI release
# Format: cell-based
# Conditions: 1 μM
# Protocol: Isolation of primary neonatal rat ventricular cardiomyocyte: All materials used for cardiomyocyte isolation were of tissue culture grade. Cardiomyocyte isolation was performed by serial enzymatic digestions, as previously described (Irvine, J C et al, AJP, 2013). Cardiomyocyte were suspended in sterile DMEM, supplemented with 100 U/mL penicillin, 100 μg/mL streptomycin, and 10% FCS. The myocyte-rich cell suspension was preplated twice (45 min at 37° C.) to reduce fibroblast contamination. Cardiomycte was then plated onto 12-well plates at 0.5×10^6 for lactate dehydrogenase (LDH) assay in the presence of 1% 5-bromo-2′-deoxyuridine (BrdU, to limit proliferation of any remaining fibroblasts).
# Simulated ischaemic-reperfusion in neonatal rat cardiomyocytes: The medium for cardiomyocytes was changed to serum-free low glucose DMEM after at least 48 h after isolation. […] Agonists were dissolved in DMEM or Krebs' buffer and were present for the full duration of hypoxia and reoxygenation. At the end of 48 h reoxygenation, culture supernatant aliquots was collected on ice and stored at −80° C. for assessment of cardiomyocyte injury. Samples were thawed on ice, and cell injury assessment determined via the level of LDH released into the supernatant, using the Cyto-Tox-One™ Homogeneous Membrane Integrity Assay as per manufacture's instruction (Promega Inc, Dane Country, Wis., USA). To confirm the extent of cardiomyocyte injury, levels of cTn in the supernatant were also evaluated, using a commercially available high-sensitivity rat cTnI ELISA kit (Life Diagnostic Inc, West Chester, Pa., USA) as per manufacturer's instructions.
# Isolation and culture of primary rat cardiomyocytes and mouse cardiac fibroblasts: All materials used for cell isolation were of tissue culture grade. Isolation of primary neonatal rat cardiac cardiomyocytes (NRCM) and adult mouse cardiac fibroblasts (AMCF) was performed by serial enzymatic digestion, as previously described (Irvine et al 2012 & Irvine et al. 3) NRCM were plated onto either 12-well tissue culture plates (for simulated ischemia-reperfusion, via hypoxia-reoxygenation, H-R) or 60 mm tissue culture dishes (for gene expression) at a density of 1.3×10^5 cells/cm^2, in the presence of 1% 5-bromo-2′-deoxyuridine. AMCF (passage #3) were seeded onto 60 mm tissue culture dishes at 9.5×10^4 cells/cm^2 and allowed to grow to 80% confluence prior to study. Following 48 h in serum-free DMEM, NRCM in 12-well tissue plates were subjected to simulated ischemia, induced by replacement of culture media with sterile-filtered Kreb's buffer (118 mM NaCl, 4.8 mM KCl, 1.2 mM KH2PO4, 1.2 mM MgSO4, 25 mM NaHCO3, […], 11.0 mM glucose, 1.75 mM CaCl2) prior to incubation for 6 h at 37° C. under hypoxia (95% N2-5% CO2, using a hypoxia chamber, QNA International, Melbourne, Australia). At the end of hypoxia, Kreb's buffer was replaced with fresh, sterile-filtered Kreb's buffer, in the presence or absence of FPR agonists Cmpd17b, Cmpd43 (both 1 μM or vehicle, and NRCM were subjected to 48 h reoxygenation at 37° C. At the end of 48 h reoxygenation, NRCM supernatant was collected for assessment of cardiomyocyte injury. Cardiomyocyte release of cTnI was determined using a commercially available, high-sensitivity rat cTnI ELISA kit (Life Diagnostic Inc.) as per the manufacturer's instructions. Separate NRVM on 60 mm dishes were incubated for 48 h at 37° C. in serum-free DMEM, in the presence or absence of FPR agonists Cmpd17b, Cmpd43 (both 1 μM) or vehicle. At the end of 48 h, RNA was extracted and real-time PCR performed (as described previously (Huynh et al. 2012)), to determine the relative gene expression of rat Fprs (rFpr1, rFpr2 and rFpr3, expressed as the threshold cycle number Ct subtracted from the maximum cycle number utilized, 40).
# Cardiomyocytes injury responses in vitro: Neonatal rat cardiomyocytes and adult mouse cardiofibroblasts were isolated and cultured as described (online Supplement). […]
# [1] = present only during reoxygenation
# [2] = present for the full duration of 6 h hypoxia and 48 h reoxygenation
Compound,Cardiomyocyte cTnI release after hypoxia-reoxygenation [1],"Cardiomyocyte cTnI release after hypoxia-reoxygenation (present only during reoxygenation, listed as Cmpd17b)",Cardiomyocyte LDH release after hypoxia-reoxygenation [2],Cardiomyocyte cTnI release after hypoxia-reoxygenation [2],Cardiomyocyte LDH release after hypoxia-reoxygenation [1]
"COc1cccc(Cc2cc(C)nn(C(C)C(=O)Nc3ccc(Br)cc3)c2=O)c1 (stereo not shown) [BIDI-001, N-(4-bromophenyl)-2-[5-(3-methoxybenzyl)-3-methyl-6-oxo-6H-pyridazin-1-yl]-propionamide]",significantly reduced,rescued,–,–,–
CC(C)C1C(NC(=O)Nc2ccc(Cl)cc2)C(=O)N(c2ccccc2)N1C (stereo not shown) [BIDI-002],significantly reduced,–,–,–,–
"Ac2-26: Annexin-A1 N-terminal peptide, peptide ANX-A1 mimetic (Ac-AMVSEFLKQAWFIENEEQEYVQTVK; UniProt P04083 2-26, looked up, fragment)",significantly attenuated,–,significantly reduced,significantly reduced,non-significant trend
